US9296755B2, “3,4-dihydro-1H-pyrimido[1,6-a]pyrimidin-6(2H)-one compounds and their therapeutic applications” (GlaxoSmithKline Intellectual Property Development Limited, priority 2013, dated 2016)

Key:
Lp-PLA2 in human plasma = target: T1, Lp-PLA2 in human plasma (Homo sapiens, UniProt Q13093); experiment: Lp-PLA2 human plasma assay (Thio-PAF assay); assay type: biochemical; conditions: pooled human plasma; read-out: pIC50 in the thio-PAF assay (converted)
T1 construct: from tissue; host or cells: pooled human plasma
T1 sequence (Q13093 22-441): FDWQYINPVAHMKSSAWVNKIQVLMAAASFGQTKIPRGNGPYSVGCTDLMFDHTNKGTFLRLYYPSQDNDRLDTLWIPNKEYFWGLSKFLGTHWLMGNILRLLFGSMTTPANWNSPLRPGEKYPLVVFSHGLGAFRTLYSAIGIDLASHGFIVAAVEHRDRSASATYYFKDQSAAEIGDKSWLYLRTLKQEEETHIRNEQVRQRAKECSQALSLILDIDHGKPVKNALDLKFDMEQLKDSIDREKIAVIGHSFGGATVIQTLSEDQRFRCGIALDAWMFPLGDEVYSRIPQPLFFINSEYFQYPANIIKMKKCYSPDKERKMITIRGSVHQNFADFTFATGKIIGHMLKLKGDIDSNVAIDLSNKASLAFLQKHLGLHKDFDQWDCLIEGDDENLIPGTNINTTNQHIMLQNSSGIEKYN
Description: (3) Lipoprotein-Associated Phospholipase A2 (Lp-PLA2) Human Plasma Assay (Also Referred to as “Thio-PAF Assay”)
The human plasma assay utilizes a thioester analog of PAF (phosphatidylcholine), where hydrolysis yields to the formation of a phospholipid containing a free thiol group. The amount of thiol is quantitated continuously by reacting with CPM (7-diethylamino-3-(4′-maleimidylphenyl)-4-methylcoumarin), a maleimide which increases in fluoresence after Michael addition of thiols. This assay may detect the activity of Lp-PLA2 in human plasma, as determined by specific inhibition by Lp-PLA2 inhibitors.
The thio-PAF assay was run as a quenched 15 μL assay. Compounds source plate was prepared by making 1:3 (by volume) serial dilution of the compounds into pure DMSO on 384-well microplate. 0.01 μL of compounds on compound source plate were transferred to 384 well Greiner 784076 (black) low-volume plates by ECHO liquid dispenser. 8 μL pooled human plasma, which was previously aliquoted and frozen, was added. Plates were centrifuged for 10 sec at 500 rpm. After 30 minutes preincubation, 2 μL of substrate solution comprising 2.5 mM 2-thio-PAF [from ethanol stock], 32 μM CPM [from a DMSO stock] and 3.2 mM NEM (N-ethylmaleimide) [made fresh daily in DMSO] in assay buffer of 50 mM HEPES, pH 7.4, 150 mM NaCl, 1 mM CHAPS was added to 384 well Greiner 784076 (black) low-volume plates by BRAVO liquid handling station. After 2 mins, reaction was quenched with 5 μL of 5% aqueous trifluoroacetic acid (TFA). Plates were covered to protect from light and incubated for 40 min at room temperature. Plates were read at ex: 380/em: 485 using Envision microplate reader. PIC50 data, curve and QC analysis were conducted by using XLFit module in Excel.

[1] = target: T2, recombinant human Lp-PLA2 (Homo sapiens, UniProt Q13093); experiment: Recombinant human Lp-PLA2 assay (rhLp-PLA2, PED6 assay); assay type: biochemical; conditions: recombinant human Lp-PLA2, PED6 substrate; read-out: rhLp-PLA2 (PED6 assay) (pIC50) (converted)
T2 sequence (Q13093 22-441): T1 sequence (Q13093 22-441)
Description: (1) Recombinant Human Lp-PLA2 Assay (rhLp-PLA2) (Also Referred to as “PED6” Assay)
N-((6-(2,4-dinitrophenyl)amino)-hexanoyl)-2-(4,4-difluoro-5,7-dimethyl-4-bora-3a,4a-diaza-s-indacene-3-pentanoyl)-1-hexadecanoyl-sn-glycero-3-phosphoethanolamine, triethylammonium salt (PED6) is a commercially available fluorescently-labeled phospholipid, which is commercially available from Invitrogene and Molecular Probes. There is a quenching […] and a Bodipy fluorescein (FL) group in the sn2 position. Upon cleavage with Lp-PLA2, the Bodipy FL group is liberated and then may result in an increase in fluorescence. Inhibitors of Lp-PLA2 therefore prevent this cleavage and no fluorescent increase is observed.
The PED6 assay was run as an unquenched 10 μL assay. The source plate containing the compounds to be tested was prepared by making 1:3 (by volume) serial dilution of the compounds within DMSO on 384-well microplate. Then, 0.01 μL of the compounds on compound source plate were transferred into 384 well Greiner 784076 (black) plates using ECHO liquid dispenser. 5 μL of recombinant human Lp-PLA2 enzyme (4 nM (or 110 pM) rhLp-PLA2 in assay buffer of 50 mM HEPES, pH 7.4, 150 mM NaCl, 1 mM CHAPS) was added to each well of the plate. Plates were centrifuged for 10 sec at 500 rpm. After 30 minutes preincubation, 5 μL of substrate (4 μM (or 5 μM) PED6 [from 5 mM DMSO stock] in assay buffer of 50 mM HEPES, pH 7.4, 150 mM NaCl, 1 mM CHAPS) was added to 384 well Greiner 784076 (black) plates. Plates were centrifuged for 10 sec at 500 rpm. The plate was covered to protect it from light and incubated for 20 min at room temperature. The plates were read for fluorescence intensity at ex: 480/em: 540 using ViewLux microplate imager for Envision spectrofluroimeters. PIC50 data, curve and QC analysis was conducted by using XL fit module in Excel.

SMILES | IC50 (Lp-PLA2 in human plasma) | IC50 [1]
CCCNC(=O)CN1CCCn2c1cc(OCc1cc(F)c(F)c(F)c1)nc2=O [Example E24, 2-(6-oxo-8-((3,4,5-trifluorobenzyl)oxy)-2,3,4,6-tetrahydro-1H-pyrimido[1,6-a]pyrimidin-1-yl)-N-propylacetamide] | ≤ 100 nM | –
CN1CCN(C(=O)CN2CCCn3c2cc(OCc2ccc(F)c(F)c2)nc3=O)CC1 [Example E19, 8-((3,4-difluorobenzyl)oxy)-1-(2-(4-methylpiperazin-1-yl)-2-oxoethyl)-3,4-dihydro-1H-pyrimido[1,6-a]pyrimidin-6(2H)-one] | ≤ 100 nM | 0.316 nM
N#Cc1cc(COc2cc3n(c(=O)n2)CCCN3C2CC2)ccc1Oc1ccc(Cl)c(C(F)(F)F)c1 [Example E11, 2-(4-chloro-3-(trifluoromethyl)phenoxy)-5-(((1-cyclopropyl-6-oxo-2,3,4,6-tetrahydro-1H-pyrimido[1,6-a]pyrimidin-8-yl)oxy)methyl)benzonitrile] | ≤ 100 nM | 0.794 nM
O=C(CN1CCCn2c1cc(OCc1ccc(F)c(F)c1)nc2=O)N1CCCCC1 [Example E21, 8-((3,4-difluorobenzyl)oxy)-1-(2-oxo-2-(piperidin-1-yl)ethyl)-3,4-dihydro-H-pyrimido[1,6-a]pyrimidin-6(2H)-one] | ≤ 100 nM | –
O=c1nc(OCc2ccc(F)c(F)c2)cc2n1CCCN2Cc1ccc(Cl)cc1 [Example E2, 1-(4-chlorobenzyl)-8-((3,4-difluorobenzyl)oxy)-3,4-dihydro-1H-pyrimido[1,6-a]pyrimidin-6(2H)-one] | – | 0.631 nM
O=C(CN1CCCn2c1cc(OCc1ccc(F)c(F)c1)nc2=O)N1CCC(F)(F)CC1 [Example E20, 8-((3,4-difluorobenzyl)oxy)-1-(2-(4,4-difluoropiperidin-1-yl)-2-oxoethyl)-3,4-dihydro-1H-pyrimido[1,6-a]pyrimidin-6(2H)-one] | ≤ 100 nM | 0.2 nM
O=c1nc(OCc2ccc(F)c(F)c2)cc2n1CCCN2Cc1ccc(F)cc1 [Example E3, 8-((3,4-difluorobenzyl)oxy)-1-(4-fluorobenzyl)-3,4-dihydro-1H-pyrimido[1,6-a]pyrimidin-6(2H)-one] | ≤ 100 nM | –
O=c1nc(OCc2ccc(F)c(F)c2)cc2n1CCCN2Cc1ccccc1 [Example E1, 1-benzyl-8-((3,4-difluorobenzyl)oxy)-3,4-dihydro-1H-pyrimido[1,6-a]pyrimidin-6(2H)-one] | ≤ 100 nM | –
O=c1nc(OCc2ccc(Oc3cccc(C(F)(F)F)c3)c(F)c2)cc2n1CCCN2C1CC1 [Example E9, 1-cyclopropyl-8-((3-fluoro-4-(3-(trifluoromethyl)phenoxy)benzyl)oxy)-3,4-dihydro-1H-pyrimido[1,6-a]pyrimidin-6(2H)-one] | ≤ 100 nM | –
O=C(CN1CCCn2c1cc(OCc1ccc(F)c(F)c1)nc2=O)N1CCOCC1 [Example E22, 8-((3,4-difluorobenzyl)oxy)-1-(2-morpholino-2-oxoethyl)-3,4-dihydro-H-pyrimido[1,6-a]pyrimidin-6(2H)-one] | ≤ 100 nM | 0.794 nM
O=C(CN1CCCn2c1cc(OCc1ccc(F)c(F)c1)nc2=O)N1CCC(F)CC1 [Example E23, 8-((3,4-difluorobenzyl)oxy)-1-(2-(4-fluoropiperidin-1-yl)-2-oxoethyl)-3,4-dihydro-1H-pyrimido[1,6-a]pyrimidin-6(2H)-one] | ≤ 100 nM | 0.794 nM
COc1ccc(CN2CCCn3c2cc(OCc2ccc(F)c(F)c2)nc3=O)cc1 [Example E4, 8-((3,4-difluorobenzyl)oxy)-1-(4-methoxybenzyl)-3,4-dihydro-1H-pyrimido[1,6-a]pyrimidin-6(2H)-one] | ≤ 100 nM | 1 nM
CNC(=O)CN1CCCn2c1cc(OCc1ccc(F)c(F)c1)nc2=O [Example E17] | ≤ 100 nM | –
O=C(CN1CCCn2c1cc(OCc1cc(F)c(F)c(F)c1)nc2=O)N1CCOCC1 [Example E16, 1-(2-morpholino-2-oxoethyl)-8-((3,4,5-trifluorobenzyl)oxy)-3,4-dihydro-1H-pyrimido[1,6-a]pyrimidin-6(2H)-one] | ≤ 100 nM | 0.501 nM
O=C(CN1CCCn2c1cc(OCc1ccc(F)c(F)c1)nc2=O)N1CCCC1 [Example E18, 8-((3,4-difluorobenzyl)oxy)-1-(2-oxo-2-(pyrrolidin-1-yl)ethyl)-3,4-dihydro-1H-pyrimido[1,6-a]pyrimidin-6(2H)-one] | ≤ 100 nM | –
COc1cccc(CN2CCCn3c2cc(OCc2ccc(F)c(F)c2)nc3=O)c1 [Example E6, 8-((3,4-difluorobenzyl)oxy)-1-(3-methoxybenzyl)-3,4-dihydro-1H-pyrimido[1,6-a]pyrimidin-6(2H)-one] | ≤ 100 nM | 1.58 nM
O=C(CN1CCCn2c1cc(OCc1cc(F)c(F)c(F)c1)nc2=O)N1CCCC1 [Example E14, 1-(2-oxo-2-(pyrrolidin-1-yl)ethyl)-8-((3,4,5-trifluorobenzyl)oxy)-3,4-dihydro-1H-pyrimido[1,6-a]pyrimidin-6(2H)-one] | ≤ 100 nM | –
O=c1nc(OCc2ccc(Oc3ccc(Cl)c(C(F)(F)F)c3)c(F)c2)cc2n1CCCN2C1CC1 [Example E8, 8-((4-(4-chloro-3-(trifluoromethyl)phenoxy)-3-fluorobenzyl)oxy)-1-cyclopropyl-3,4-dihydro-1H-pyrimido[1,6-a]pyrimidin-6(2H)-one] | ≤ 100 nM | 0.501 nM
CCCNC(=O)CN1CCCn2c1cc(OCc1ccc(F)c(F)c1)nc2=O [Example E13, 2-(8-((3,4-difluorobenzyl)oxy)-6-oxo-2,3,4,6-tetrahydro-1H-pyrimido[1,6-a]pyrimidin-1-yl)-N-propylacetamide] | ≤ 100 nM | 3.16 nM
